Experimental data as given in patent US9757357B2, “Photodynamic therapy or diagnostic agent, using infrared-spectrum light” (Tokyo Institute of Technology, priority 2011, dated 2017).

Test system: MKN45 cells
Assay: ALA-PDT using LNP under 980-nm NIR irradiation (MTT viability)
Assay type: cell-based, Human
Experimental: MKN45 cells were irradiated with NIR in the presence of ALA and LNP to confirm whether cell death occurred.
A medium in a 10-cm dish containing MKN45 cells cultured in a liquid medium (RPMI-1640, FBS(+), and PSN(+)) was aspirated, and the cells were washed with 3 ml of a PBS solution. 1 ml of trypsin was added thereto, and the mixture was incubated (37° C. and 5% CO2) for 5 minutes. The enzymatic reaction of trypsin was terminated by the addition of 5 ml of a fresh medium. A total of 6 ml of the reaction mixture was centrifuged at 1100 rpm for 5 minutes. In this procedure, 10 μl of the sample was mixed with a dye trypan blue, which dyes dead cells. The number of cells was counted using a hemacytometer. After the centrifugation, the supernatant was aspirated, and 2 ml of a fresh medium was added to the cells. The resulting cells were inoculated at a concentration of 100 μl/well (2×10^4 cells/well) to a 96-well plate for ALA concentrations 1000, 100, 10, and 0 μM and a blank. LNP(+) and LNP(−) series were prepared per sample, and these samples were divided into two different plates for NIR(+) and NIR(−). After overnight culture, the medium in each well was discarded. 100 μl of a fresh medium (containing 2.5 mg/ml LNP for the LNP(+) series) and 0.2 M ALA adjusted to the concentrations mentioned above were added to each well of the plates. After incubation for 4 hours, each plate was irradiated from 50 mm above with 980-nm NIR (400 mA) for 3 min/well. After overnight culture, the medium in each well was discarded, and the cells were washed with 100 μl of a PBS solution. 100 μl of a fresh medium and 10 μl of an MTT methanol solution diluted 10-fold with PBS were added to each well. After incubation for 4 hours, 10% SDS was added thereto at a concentration of 100 μl/well, and the mixture was incubated overnight. The absorbance was measured at 570 nm to 660 nm.
ALA-PDT was performed using commercially available LNP in the same way as in Example 4 except that the concentration of MKN45 cells was changed to 2×10^4 cells/well; the ALA concentrations were changed to 2000, 1000, 100, 10, and 0 μM; the culture time after addition of ALA was changed from 4 hours to 24 hours; and the NIR irradiation time was changed to 90 min/well.
ALA-PDT was performed using synthetic LNP in the same way as in Example 5 except that: the concentration of the synthetic LNP prepared in Example 6 was set to 2 mg/mL; and the ALA concentrations were changed to 2000, 1500, 1000, 100, and 0 μM.

## NCC(=O)CCC(=O)O [ALA, 5-aminolevulinic acid]
Example 4, FIG. 4, LNP(−),NIR(+), ALA 0-1000 μM, 4 h, 980-nm NIR 3 min/well
  cell viability: slight reduction in viability was confirmed
Example 4, FIG. 4, no NIR irradiation, ALA 0-1000 μM, 4 h, LNP(+) series 2.5 mg/ml and LNP(−) series
  cell viability: no change was observed in cell viability
Example 5, FIG. 5, LNP(−),NIR(+), ALA 0-2000 μM, 24 h, NIR 90 min/well
  cell viability: no change was confirmed in cell viability
Example 5, FIG. 5, no NIR irradiation, ALA 0-2000 μM, 24 h
  cell viability: no change was confirmed in cell viability
